# In patent US20140107021A1 (priority 2010, published 2014):
# Read-outs that look alike come from different tables or passages of the source. Square brackets hold non-standard residues; d marks the D form. Ends that are not written are not given here. Peptide text beside a SMILES is read from it. MCA = alpha-methylhydrocinnamic acid (2-methyl-3-phenylpropanoic acid); PEG 20 kDa = PEG of about 20 kDa linked to Cys (maleimido methoxyPEG); PLA = 3-phenyllactic acid (2-hydroxy-3-phenylpropanoic acid)
# How the values were obtained:
# [1] = biological target: T1, glucagon receptor (Homo sapiens, UniProt P47871); assay: cell-based; details: for IC50(nM) (cΛMP, inhibit 0.2 mM Glucagon): Table L
# T1 sequence (P47871 26-477): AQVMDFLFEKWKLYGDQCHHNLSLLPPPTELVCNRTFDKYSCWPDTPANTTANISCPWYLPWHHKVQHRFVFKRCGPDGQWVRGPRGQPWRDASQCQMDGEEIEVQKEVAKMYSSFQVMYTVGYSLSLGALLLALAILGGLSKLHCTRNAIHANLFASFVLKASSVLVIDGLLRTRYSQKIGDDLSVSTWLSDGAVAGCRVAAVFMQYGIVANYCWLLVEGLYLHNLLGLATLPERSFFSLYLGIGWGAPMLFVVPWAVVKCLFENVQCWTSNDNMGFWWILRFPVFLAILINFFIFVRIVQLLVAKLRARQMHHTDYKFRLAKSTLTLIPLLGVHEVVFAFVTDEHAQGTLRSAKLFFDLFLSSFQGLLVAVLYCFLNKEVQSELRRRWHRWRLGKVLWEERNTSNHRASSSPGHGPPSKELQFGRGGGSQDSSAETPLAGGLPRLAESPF
# Excerpt: (§1) HEK293 cells co-transfected with the receptor and luciferase gene linked to a cAMP responsive element were employed for the bioassay.
# (§2) All EC50s and IC50s are reported in the following examples in nM, unless indicated otherwise.
# [2] = biological target: T2, GLP-1 receptor (Homo sapiens, UniProt P43220); assay: cAMP induction at the GLP-1 receptor (agonist activity), firefly luciferase reporter assay in HEK293 cells; assay type: cell-based
# T2 construct: expressed in transfected cells; host or cells: HEK293
# T2 sequence (P43220 24-463): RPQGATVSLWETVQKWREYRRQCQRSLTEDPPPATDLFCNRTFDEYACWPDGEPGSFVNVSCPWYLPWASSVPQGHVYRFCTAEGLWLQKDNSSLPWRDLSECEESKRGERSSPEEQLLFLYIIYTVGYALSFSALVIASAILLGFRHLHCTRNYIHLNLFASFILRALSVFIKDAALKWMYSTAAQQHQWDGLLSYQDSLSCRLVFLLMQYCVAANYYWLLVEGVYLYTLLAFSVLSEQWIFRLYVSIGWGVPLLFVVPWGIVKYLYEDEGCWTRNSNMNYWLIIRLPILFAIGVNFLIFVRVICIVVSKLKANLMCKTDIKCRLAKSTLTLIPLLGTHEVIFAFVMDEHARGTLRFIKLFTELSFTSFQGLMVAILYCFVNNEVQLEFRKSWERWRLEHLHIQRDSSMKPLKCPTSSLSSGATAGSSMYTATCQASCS
# Excerpt: as §1, §2
# [3] = biological target: T1, glucagon receptor; assay: cAMP induction at the glucagon receptor (agonist activity), luciferase reporter assay in HEK293 cells; assay type: cell-based; design: expressed in transfected cells; host or cells: HEK293; details: Table E; read-out: cAMP Induction EC50
# Excerpt: as §1, §2
molecule,measurement,setting,value
"[MCA6, E9, C24(20 kDaPEG)]Glucagon(aa6-29)-NII2 ([MCA]TSEYSKYLDSRRAQDFVC(PEG 20 kDa)WLMNT-NH2)","IC50(nM) (cΛMP, inhibit 0.2 mM Glucagon)",[1],no antagonism
H-FTSKYSKYLDSRRAQDFVQWLMNT-NH2 [[Lys^9]Glucagon(aa6-29)-NH2],Kb,[1],0.263 µM
same,cAMP (I/A)50,[1],1990
same,cAMP pA2,[1],6.58 ± 0.60
CSCC[C@H](NC(=O)[C@H](CC(C)C)NC(=O)[C@H](Cc1c[nH]c2ccccc12)NC(=O)[C@H](CCC(N)=O)NC(=O)[C@@H](NC(=O)[C@H](Cc1ccccc1)NC(=O)[C@H](CC(=O)O)NC(=O)[C@H](CCC(N)=O)NC(=O)[C@H](C)NC(=O)[C@H](CCCNC(=N)N)NC(=O)[C@H](CCCNC(=N)N)NC(=O)[C@H](CO)NC(=O)[C@H](CC(=O)O)NC(=O)[C@H](CC(C)C)NC(=O)[C@H](Cc1ccc(O)cc1)NC(=O)[C@H](CCCCN)NC(=O)[C@H](CO)NC(=O)[C@H](Cc1ccc(O)cc1)NC(=O)[C@H](CCS(=O)(=O)O)NC(=O)[C@H](CO)NC(=O)[C@@H](NC(=O)[C@H](Cc1ccccc1)NC(=O)[C@@H](NC(=O)CN)[C@@H](C)O)[C@@H](C)O)C(C)C)C(=O)N[C@@H](CC(N)=O)C(=O)N[C@H](C(N)=O)[C@@H](C)O [[hCys^9(SO3H)]Glucagon(aa4-29)-NH2] (HELM PEPTIDE1{G.T.F.T.S.[O=C([C@H](CCS(=O)(=O)O)N[*:1])[*:2]].Y.S.K.Y.L.D.S.R.R.A.Q.D.F.V.Q.W.L.M.N.T.[am]}$$$$V2.0; N-terminus assumed),Kb,[1],0.0603 µM
"CSCC[C@H](NC(=O)[C@H](CC(C)C)NC(=O)[C@H](Cc1c[nH]c2ccccc12)NC(=O)[C@H](CCC(N)=O)NC(=O)[C@@H](NC(=O)[C@H](Cc1ccccc1)NC(=O)[C@H](CC(=O)O)NC(=O)[C@H](CCC(N)=O)NC(=O)[C@H](C)NC(=O)[C@H](CCCNC(=N)N)NC(=O)[C@H](CCCNC(=N)N)NC(=O)[C@@H]1CCC(=O)NCCCC[C@H](NC(=O)[C@H](CO)NC(=O)[C@H](Cc2ccc(O)cc2)NC(=O)[C@H](CCC(=O)O)NC(=O)[C@H](CO)NC(=O)[C@@H](NC(=O)[C@@H](O)Cc2ccccc2)[C@@H](C)O)C(=O)N[C@@H](Cc2ccc(O)cc2)C(=O)N[C@@H](CC(C)C)C(=O)N[C@@H](CC(=O)O)C(=O)N1)C(C)C)C(=O)N[C@@H](CC(N)=O)C(=O)N[C@H](C(=O)NCC(=O)N1CCC[C@H]1C(=O)N[C@@H](CO)C(=O)N[C@@H](CO)C(=O)NCC(=O)N[C@@H](C)C(=O)N1CCC[C@H]1C(=O)N1CCC[C@H]1C(=O)N1CCC[C@H]1C(=O)N[C@@H](CO)C(N)=O)[C@@H](C)O [[PLA6, E9, K12E16(Lactam)] (HELM PEPTIDE1{[O=C([C@@H](O)Cc1ccccc1)[*:2]].T.S.E.Y.S.K.Y.L.D.E.R.R.A.Q.D.F.V.Q.W.L.M.N.T.G.P.S.S.G.A.P.P.P.S.[am]}$PEPTIDE1,PEPTIDE1,7:R3-11:R3$$$V2.0)",EC50,"[2]; GLP-1 EC50 (nM), Table C",6 nM
same,EC50,"[2]; GLP-1 ECso (nM), Table A",6 nM
same,IC50,"[1]; Glu ICso (nM), Table A, Glu = glucagon",72 nM
"CSCC[C@H](NC(=O)[C@H](CC(C)C)NC(=O)[C@H](Cc1c[nH]c2ccccc12)NC(=O)[C@H](CCC(N)=O)NC(=O)[C@@H](NC(=O)[C@H](Cc1ccccc1)NC(=O)[C@H](CC(=O)O)NC(=O)[C@H](CCC(N)=O)NC(=O)[C@H](C)NC(=O)[C@H](CCCNC(=N)N)NC(=O)[C@H](CCCNC(=N)N)NC(=O)[C@@H]1CCC(=O)NCCCC[C@H](NC(=O)[C@H](CO)NC(=O)[C@H](Cc2ccc(O)cc2)NC(=O)[C@H](CC(=O)O)NC(=O)[C@H](CO)NC(=O)[C@@H](NC(=O)[C@@H](O)Cc2ccccc2)[C@@H](C)O)C(=O)N[C@@H](Cc2ccc(O)cc2)C(=O)N[C@@H](CC(C)C)C(=O)N[C@@H](CC(=O)O)C(=O)N1)C(C)C)C(=O)N[C@@H](CC(=O)O)C(=O)N[C@H](C(N)=O)[C@@H](C)O [[PLA6, D9, K12E16(Lactam), D28]G(6-29)] (HELM PEPTIDE1{[O=C([C@@H](O)Cc1ccccc1)[*:2]].T.S.D.Y.S.K.Y.L.D.E.R.R.A.Q.D.F.V.Q.W.L.M.D.T.[am]}$PEPTIDE1,PEPTIDE1,7:R3-11:R3$$$V2.0)",IC50,"[1]; Glucagon IC50 (nM), Table B",63 nM
"CC(C)C[C@H](NC(=O)[C@H](Cc1ccc(O)cc1)NC(=O)[C@H](CCCCN)NC(=O)[C@H](CO)NC(=O)[C@H](Cc1ccc(O)cc1)NC(=O)[C@H](CCS(=O)(=O)O)NC(=O)[C@H](CO)NC(=O)[C@@H](NC(=O)[C@H](Cc1ccccc1)NC(=O)[C@@H](NC(=O)[C@H](CC(C)C)NC(=O)[C@H](CCC(N)=O)NC(=O)[C@@H](N)CO)[C@@H](C)O)[C@@H](C)O)C(=O)N[C@@H](CC(=O)O)C(=O)N[C@@H](CO)C(=O)N[C@@H](CCCNC(=N)N)C(=O)N[C@@H](CCCNC(=N)N)C(=O)N[C@@H](C)C(=O)N[C@@H](CCC(N)=O)C(=O)N[C@@H](CC(=O)O)C(=O)N[C@@H](Cc1ccccc1)C(=O)N[C@H](C(=O)N[C@@H](CCC(N)=O)C(=O)N[C@@H](Cc1ccccc1)C(=O)N[C@@H](CC(C)C)C(=O)N[C@@H](CC(C)C)C(=O)N[C@@H](CC(N)=O)C(=O)N[C@H](C(N)=O)[C@@H](C)O)C(C)C [[desHis^1, Leu^4, hCys^9(SO3—), Phe^25, Leu^27]Glucagon-NH2] (HELM PEPTIDE1{S.Q.L.T.F.T.S.[O=C([C@H](CCS(=O)(=O)O)N[*:1])[*:2]].Y.S.K.Y.L.D.S.R.R.A.Q.D.F.V.Q.F.L.L.N.T.[am]}$$$$V2.0)",EC50,[3],1.61 ± 1.13 µM
FTSDYSKYLDSRRAQDFVQWLMNT-NH2 [Glucagon(aa6-29)-NH2],Kb,[1],0.115 µM
same,cAMP (I/A)50,[1],1730
same,cAMP pA2,[1],6.94 ± 0.63
"[PLA6, C8(1.2 kDaPEG), E9]Glucagon(aa6-29)-NH2 ({PLA}-TC(PEG 1.2 kDa)EYSKYLDSRRAQDFVQWLMNT-NH2)","IC50(nM) (cΛMP, inhibit 0.2 mM Glucagon)",[1],no antagonism
"CSCC[C@H](NC(=O)[C@H](CC(C)C)NC(=O)[C@H](Cc1c[nH]c2ccccc12)NC(=O)[C@H](CCC(N)=O)NC(=O)[C@@H](NC(=O)[C@H](Cc1ccccc1)NC(=O)[C@H](CC(=O)O)NC(=O)[C@@H]1CCCCNC(=O)CC[C@H](NC(=O)[C@H](CC(=O)O)NC(=O)[C@H](CC(C)C)NC(=O)[C@H](Cc2ccc(O)cc2)NC(=O)[C@H](CCCCN)NC(=O)[C@H](CO)NC(=O)[C@H](Cc2ccc(O)cc2)NC(=O)[C@H](CCC(=O)O)NC(=O)[C@H](CO)NC(=O)[C@@H](NC(=O)[C@H](Cc2ccccc2)NC(=O)[C@@H](NC(=O)CNC(=O)[C@H](CCC(=O)O)NC(=O)[C@H](C)N)[C@@H](C)O)[C@@H](C)O)C(=O)N[C@@H](CCCNC(=N)N)C(=O)N[C@@H](CCCNC(=N)N)C(=O)N[C@@H](C)C(=O)N1)C(C)C)C(=O)N[C@@H](CC(=O)O)C(=O)N[C@H](C(N)=O)[C@@H](C)O [[A2E3, E16K20(Lactam),D28]G(2~29)]",IC50,"[1]; read-out: Glucagon IC50, Table B",63 nM
"CSCC[C@H](NC(=O)[C@H](CC(C)C)NC(=O)[C@H](Cc1c[nH]c2ccccc12)NC(=O)[C@H](CCC(N)=O)NC(=O)[C@@H](NC(=O)[C@H](Cc1ccccc1)NC(=O)[C@H](CC(=O)O)NC(=O)[C@H](CCC(N)=O)NC(=O)[C@H](C)NC(=O)[C@H](CCCNC(=N)N)NC(=O)[C@H](CCCNC(=N)N)NC(=O)[C@H](CO)NC(=O)[C@H](CC(=O)O)NC(=O)[C@H](CC(C)C)NC(=O)[C@H](Cc1ccc(O)cc1)NC(=O)[C@H](CCCCN)NC(=O)[C@H](CO)NC(=O)[C@H](Cc1ccc(O)cc1)NC(=O)[C@H](CCC(=O)O)NC(=O)[C@H](CO)NC(=O)[C@@H](NC(=O)[C@H](Cc1ccccc1)NC(=O)[C@@H](NC(=O)[C@@H](O)Cc1ccccc1)[C@@H](C)O)[C@@H](C)O)C(C)C)C(=O)N[C@@H](CC(N)=O)C(=O)N[C@H](C(N)=O)[C@@H](C)O [[PLA^4, E^9]Glucagon(aa4-29)-NH2] (HELM PEPTIDE1{[O=C([C@@H](O)Cc1ccccc1)[*:2]].T.F.T.S.E.Y.S.K.Y.L.D.S.R.R.A.Q.D.F.V.Q.W.L.M.N.T.[am]}$$$$V2.0)",IC50,"[1]; IC50(nM) (cAMP, inhibit 0.8 mM Glucagon), Table K, inhibit 0.8 mM Glucagon",84.4 ± 19.5 nM
CSCC[C@H](NC(=O)[C@H](CC(C)C)NC(=O)[C@H](Cc1c[nH]c2ccccc12)NC(=O)[C@H](CCC(N)=O)NC(=O)[C@@H](NC(=O)[C@H](Cc1ccccc1)NC(=O)[C@H](CC(=O)O)NC(=O)[C@H](CCC(N)=O)NC(=O)[C@H](C)NC(=O)[C@H](CCCNC(=N)N)NC(=O)[C@H](CCCNC(=N)N)NC(=O)[C@H](CO)NC(=O)[C@H](CC(=O)O)NC(=O)[C@H](CC(C)C)NC(=O)[C@H](Cc1ccc(O)cc1)NC(=O)[C@H](CCCCN)NC(=O)[C@H](CO)NC(=O)[C@H](Cc1ccc(O)cc1)NC(=O)[C@H](CCS(=O)(=O)O)NC(=O)[C@H](CO)NC(=O)[C@@H](NC(=O)[C@H](Cc1ccccc1)NC(=O)[C@@H](N)[C@@H](C)O)[C@@H](C)O)C(C)C)C(=O)N[C@@H](CC(N)=O)C(=O)N[C@H](C(N)=O)[C@@H](C)O [[hCys^9(SO3H)]Glucagon(aa5-29)-NH2] (HELM PEPTIDE1{T.F.T.S.[O=C([C@H](CCS(=O)(=O)O)N[*:1])[*:2]].Y.S.K.Y.L.D.S.R.R.A.Q.D.F.V.Q.W.L.M.N.T.[am]}$$$$V2.0; N-terminus assumed),Kb,[1],0.17 µM
GTFTSEYSKYLDSRRAQDFVQWLMNT-NH2 [[Glu^9]Glucagon(aa4-29)-NH2],Kb,[1],0.0891 µM
"HSQGTFTSDYARYLDARRAREFIKWLVRGRG [ANK2 (Bayer peptide), reference compound]",Glucagon IC50 (nM),[1]; Table B,agonist
